# Experimental data published in the Kinase Knowledgebase extract (Sharma et al. 2016).
# Target: PIK3CA (human) (UniProt P42336)
# Assay: Inhibition of PIK3CA Kinase Activity
# PIK3CA (human), sequence (P42336 whole entry, looked up): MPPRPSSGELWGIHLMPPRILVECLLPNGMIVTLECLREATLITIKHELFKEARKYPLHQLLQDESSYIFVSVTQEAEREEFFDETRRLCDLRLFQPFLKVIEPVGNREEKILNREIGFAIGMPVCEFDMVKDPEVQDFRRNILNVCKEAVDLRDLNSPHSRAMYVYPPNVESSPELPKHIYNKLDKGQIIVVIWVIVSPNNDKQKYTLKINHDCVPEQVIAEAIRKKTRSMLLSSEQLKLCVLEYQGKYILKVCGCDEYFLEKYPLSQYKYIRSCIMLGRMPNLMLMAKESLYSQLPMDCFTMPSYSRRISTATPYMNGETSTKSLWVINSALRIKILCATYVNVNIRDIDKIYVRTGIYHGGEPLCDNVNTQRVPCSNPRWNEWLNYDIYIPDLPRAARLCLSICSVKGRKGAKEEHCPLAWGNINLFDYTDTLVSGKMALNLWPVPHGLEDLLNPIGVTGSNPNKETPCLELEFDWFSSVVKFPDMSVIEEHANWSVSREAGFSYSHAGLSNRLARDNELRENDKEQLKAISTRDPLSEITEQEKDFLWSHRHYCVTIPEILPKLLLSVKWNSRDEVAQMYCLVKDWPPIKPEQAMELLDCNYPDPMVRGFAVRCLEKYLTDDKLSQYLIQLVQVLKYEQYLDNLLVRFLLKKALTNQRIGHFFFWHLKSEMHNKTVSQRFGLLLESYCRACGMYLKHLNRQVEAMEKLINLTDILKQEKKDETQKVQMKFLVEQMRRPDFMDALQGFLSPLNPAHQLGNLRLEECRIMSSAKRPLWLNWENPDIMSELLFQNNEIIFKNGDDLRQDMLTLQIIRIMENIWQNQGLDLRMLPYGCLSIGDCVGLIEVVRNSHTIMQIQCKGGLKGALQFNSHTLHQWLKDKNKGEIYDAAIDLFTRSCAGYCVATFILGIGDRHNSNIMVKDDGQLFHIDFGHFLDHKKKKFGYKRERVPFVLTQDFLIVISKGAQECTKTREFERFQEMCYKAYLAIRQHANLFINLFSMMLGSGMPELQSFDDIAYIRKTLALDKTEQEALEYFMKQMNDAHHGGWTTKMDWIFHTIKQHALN
row,IC50 [nM],Compound
1,< 1000,Nc1cnc(-c2nc(N3CCOCC3)nc3c2nc(Br)n3C2CCOC2)cn1 (stereo not given)
2,< 1000,COCC(C)n1cnc2c(-c3cnc(N)cn3)nc(N3CCOCC3)nc21 (stereo not given)
3,< 1000,Nc1cnc(-c2nc(N3CCOCC3)nc3c2ncn3-c2ccccc2)cn1
4,< 1000,Nc1cnc(-c2nc(N3CCOCC3)nc3c2ncn3C2CCC2)cn1
5,< 1000,CC1CCCCC1n1cnc2c(-c3cnc(N)cn3)nc(N3CCOCC3)nc21 (stereo not given)
6,< 1000,Nc1cnc(-c2nc(N3CCOCC3)nc3c2ncn3C2CCN(c3ccccc3)CC2)cn1
7,< 1000,Nc1cnc(-c2nc(N3CCOCC3)nc3[nH]cnc23)cn1
8,< 1000,CCC(CC)n1cnc2c(-c3cnc(N)cn3)nc(N3CCOCC3)nc21
9,< 1000,Nc1cnc(-c2nc(N3CCOCC3)nc3c2ncn3C2CCN(c3ccccc3)C2)cn1 (stereo not given)
10,< 1000,Nc1cnc(-c2nc(N3CCOCC3)nc3c2ncn3C2Cc3ccccc3C2)cn1
11,< 1000,Nc1cnc(-c2nc(N3CCOCC3)nc3c2ncn3C2CCCC2)cn1
12,< 1000,Nc1cnc(-c2nc(N3CCOCC3)nc3c2ncn3C2CCOC2)cn1 (stereo not given)
13,< 1000,Nc1cnc(-c2nc(N3CCOCC3)nc3c2ncn3-c2ccc3c(c2)OCO3)cn1
14,< 1000,CC(C)C(C)n1cnc2c(-c3cnc(N)cn3)nc(N3CCOCC3)nc21 (stereo not given)
15,< 1000,CCC(C)n1cnc2c(-c3cnc(N)cn3)nc(N3CCOCC3)nc21 (stereo not given)
16,< 1000,Nc1cnc(-c2nc(N3CCOCC3)nc3c2ncn3C2CCc3ccccc3C2)cn1 (stereo not given)
17,< 1000,Nc1cnc(-c2nc(N3CCOCC3)nc3c2ncn3Cc2c(F)cccc2F)cn1
18,< 1000,Nc1cnc(-c2nc(N3CCOCC3)nc3c2ncn3CC2CC2)cn1
19,< 1000,Nc1cnc(-c2nc(N3CCOCC3)nc3c2ncn3Cc2ccccc2)cn1
20,< 1000,Nc1cnc(-c2nc(N3CCOCC3)nc3c2ncn3C2CCc3ccccc32)cn1 (stereo not given)
21,< 1000,CCC(C#N)n1cnc2c(-c3cnc(N)cn3)nc(N3CCOCC3)nc21 (stereo not given)
22,< 1000,CC(C1CC1)n1cnc2c(-c3cnc(N)cn3)nc(N3CCOCC3)nc21 (stereo not given)
23,< 1000,CCC(C)n1c(Br)nc2c(-c3cnc(N)cn3)nc(N3CCOCC3)nc21 (stereo not given)
24,< 1000,CC(C)(C)Cn1cnc2c(-c3cnc(N)cn3)nc(N3CCOCC3)nc21
25,< 1000,Cc1cccc(-n2cnc3c(-c4cnc(N)cn4)nc(N4CCOCC4)nc32)c1
